Measurements published in article PMC9029323, “In Silico Identification of Novel Inhibitors Targeting the Homodimeric Interface of Superoxide Dismutase from the Dental Pathogen Streptococcus mutans” (Antioxidants, 2022).
“Also recorded” adds a separate entry of the source. Where two headings read alike, the source gives them in different places.

Assays:
[1] = target: T1, SmSOD (Streptococcus mutans serotype c, UniProt P09738); assay: SOD activity assay (inhibition of cytochrome c reduction, xanthine/xanthine oxidase method) with SmSOD; assay type: biochemical
T1 construct: His-tail; made in house; host or cells: Escherichia coli BL21(DE3), vector vSmSOD (pET-22b(+)-derived)
T1 sequence (P09738 2-203): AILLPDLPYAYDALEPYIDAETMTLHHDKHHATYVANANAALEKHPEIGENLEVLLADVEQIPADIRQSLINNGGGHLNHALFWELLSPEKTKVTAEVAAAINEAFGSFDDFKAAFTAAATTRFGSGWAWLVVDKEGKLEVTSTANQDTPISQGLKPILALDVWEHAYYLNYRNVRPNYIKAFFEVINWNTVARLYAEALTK
Description: (§2) Purified recombinant forms of SmSOD and StSOD were obtained through a heterologous expression system constituted by the Escherichia coli BL21(DE3) strain transformed with appropriate expression vectors, vSmSOD [11] or vStSOD [12]. These pET-22b(+)- or pET-28b(+)-derived plasmids led to the production of recombinant forms of SmSOD or StSOD, respectively fused to a His-tail, useful for their one-step purification by affinity chromatography, as previously described [11, 12]. The improvement of Mn uptake by SmSOD was realised as previously described [11, 12, 13]. The resulting metal (Fe and Mn) content in the cambialistic enzyme was determined by graphite furnace atomic absorption spectrometry with a Shimadzu ACS-6100 auto sampler [46]. Fe-SOD from Escherichia coli (cat. SRP6107) and the Cu/Zn-SOD from bovine erythrocytes (cat. 574594) were purchased from Sigma–Aldrich. A recombinant form of the eukaryal Mn–SOD from rat mitochondria was prepared as previously described [19]. Protein concentration was determined by the Bradford method, using bovine serum albumin as standard [47]. […] One unit of SOD activity was defined as the amount of enzyme that caused 50% inhibition of cytochrome c reduction.

[2] = target: cambialistic StSOD (Streptococcus thermophilus, UniProt Q5M4Z1); assay: SOD activity assay with StSOD; assay type: biochemical
Chain of cambialistic StSOD (Q5M4Z1 entry or part of it): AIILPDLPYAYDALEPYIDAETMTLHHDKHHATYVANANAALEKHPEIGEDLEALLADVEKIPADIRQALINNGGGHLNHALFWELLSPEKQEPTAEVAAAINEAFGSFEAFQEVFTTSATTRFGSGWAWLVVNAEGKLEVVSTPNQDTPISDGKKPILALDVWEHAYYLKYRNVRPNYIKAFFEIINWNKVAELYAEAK
Description: as §2

[3] = target: T2, Fe-SOD from Escherichia coli (Escherichia coli, UniProt P0AGD3); assay: SOD activity assay with Fe-SOD; assay type: biochemical
T2 construct: purchased Sigma–Aldrich SRP6107
T2 sequence (P0AGD3 2-193): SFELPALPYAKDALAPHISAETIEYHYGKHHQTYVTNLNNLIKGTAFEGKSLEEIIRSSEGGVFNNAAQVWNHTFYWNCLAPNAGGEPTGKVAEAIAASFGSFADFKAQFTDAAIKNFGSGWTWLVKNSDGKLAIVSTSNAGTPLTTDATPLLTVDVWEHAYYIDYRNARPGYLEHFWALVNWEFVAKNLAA
Description: as §2

[4] = target: T3, Mn–SOD from rat mitochondria (Rattus norvegicus, UniProt P07895); assay: SOD activity assay with Mn-SOD; assay type: biochemical
T3 construct: made in house
T3 sequence (P07895 25-222): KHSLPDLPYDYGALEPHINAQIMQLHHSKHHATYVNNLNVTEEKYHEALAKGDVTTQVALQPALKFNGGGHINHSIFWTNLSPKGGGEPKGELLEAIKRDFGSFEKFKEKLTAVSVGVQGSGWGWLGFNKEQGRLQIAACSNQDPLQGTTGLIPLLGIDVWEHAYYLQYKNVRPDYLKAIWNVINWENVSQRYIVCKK
Description: as §2

[5] = target: T4, SmSOD homodimer (Streptococcus mutans serotype c, UniProt P09738); assay: Size exclusion chromatography (gel-filtration) of SmSOD
T4 construct: His-tail; made in house; host or cells: Escherichia coli BL21(DE3), vector vSmSOD (pET-22b(+)-derived)
T4 sequence (P09738 2-203): as the sequence (P09738 2-203) above
Procedure: The oligomerization status of SmSOD was analyzed by gel-filtration on a Superdex^TM 75 10/300 GL column (GE Healthcare) connected to an FPLC^TM system. The column was equilibrated and eluted at 0.5 mL/min at room temperature (20–24 °C) with a 20 mM Tris•HCl buffer, pH 7.8, containing 150 mM KCl and 1% (v/v) DMSO. However, where indicated, the equilibration and elution buffer also contained 200 µM inhibitor. The protein molecular mass standards used for calibration of the size exclusion chromatography were bovine serum albumin (68 kDa), egg albumin (46 kDa), carbonic anhydrase (30 kDa) and cytochrome c (12.4 kDa).
Figure 4 Effect of ALS-31 on gel-filtration of SmSOD. A protein sample of SmSOD, 63 µM in 20 mM Tris•HCl buffer, pH 7.8, supplemented with 150 mM KCl and 1% (v/v) DMSO, was untreated or incubated at room temperature for 20 min with 200 µM ALS-31. The protein sample was then loaded on a Superdex 75 10/300 column and the elution profile was followed by a continuous absorbance monitoring at 280 nm. Untreated SmSOD (black line); SmSOD incubated with 200 µM ALS-31 without (green line) or after the addition of 200 µM ALS-31 in the elution buffer (red line). The elution volumes of bovine serum albumin (9.56 mL), egg albumin (10.44 mL), carbonic anhydrase (11.72 mL) and cytochrome c (13.51 mL), used as standard protein markers, are indicated by inverted triangles. Their position was unaffected by the addition of ALS-31 in equilibration and elution buffer.

[6] = target: T1, SmSOD; assay: Gel electrophoresis of SmSOD under not denaturing conditions; settings: 7 to 51 µM protein, preincubation with 488 µM compound; not shown
Description: The putative reversible interaction between SmSOD and ALS-31 was further investigated through the behaviour of this enzyme in gel electrophoresis. […] Therefore, the reversible and non-covalent interaction between SmSOD and ALS-31 allowed the disassemblage of the enzyme and consequently its inhibition, only when a proper concentration of the inhibitor remained in contact with the enzyme.

[7] = test system: Streptococcus mutans ATCC-700610; assay: Broth micro-dilution antibacterial assay (planktonic growth); assay type: cell-based; settings: 24 h
Procedure: (§1) The bacterial strain used for antimicrobial assays was Streptococcus mutans ATCC-700610. The strain was stored in 15% (v/v) glycerol stocks at −80 °C. Before each experiment, cells were subcultured from the stocks into Trypticase Soy Agar (TSA, cat. PA-254051.06) with 5% Sheep Blood (Becton Dickinson, Sparks, NV, USA) plates at 37 °C in 5% CO2 atmosphere for 48 h.
The antibacterial activity of compounds ALS-31 or ALS-31-9 was assayed in S. mutans cultures by a standard broth micro-dilution method in 96-well polystyrene plates using Brain-Heart Infusion broth (BHI, cat. 255003, Becton Dickinson, Sparks, NV, USA). One hundred microliters of bacterial suspension adjusted to approximately 1.5 × 10^6 CFU/mL were incubated with 100 µL of serial dilutions of the compounds dissolved in final 1.0% (v/v) DMSO as a vehicle. The plates were incubated at 37 °C in 5% CO2 atmosphere for 24 h under shaking (300 rpm). The medium turbidity was measured by a spectrophotometer at 595 nm (Bio-Rad Laboratories Inc., Hercules, CA, USA). Compound-free wells in 1.0% (v/v) DMSO were used as controls (100% planktonic growth), and antibacterial activity was expressed as a percentage of residual growth. Chlorhexidine acetate (CHX, cat. 51094, Sigma-Aldrich, St. Louis, MO, USA) solution (1 mg/mL) was prepared and included as control for the assay of S. mutans’ susceptibility (MIC referred to [51]). Each compound was tested in triplicate; each experiment was performed twice.

[8] = test system: Streptococcus mutans ATCC-700610; assay: Crystal violet staining biofilm biomass assay; assay type: cell-based; settings: 24 h
Procedure: as §1
The crystal violet (CV) staining method was used to measure biofilm biomass formed in flat-bottomed 96-well microplates in the presence of ALS-31 or ALS-31-9, as described by Stepanović et al., with some modifications. A bacterial suspension of approximately 1.5 × 10^6 CFU/mL in BHI supplemented with 1% (w/v) glucose was prepared, and 100-µL aliquots of this suspension were incubated with 100 µL of serial dilutions of each compound. The microplate was incubated at 37 °C for 24 h, after which the non-adherent cells were gently aspirated and the wells gently rinsed with PBS (Sigma–Aldrich). The adhered biofilm was dried at 60 °C for 30 min and subsequently stained with 0.1% (w/v) crystal violet solution for 30 min. After washing with PBS and solubilization with absolute ethanol to release the dye from the biofilm, the plate was read at 570 nm in a spectrophotometer. The absorbance recorded was related to the amount of biofilm produced. The reduction in the mass of the biofilm was expressed as a percentage by using the formula [(Ac-At)/Ac] × 100, where Ac is the OD570 for the control wells and At is the OD570 in the presence of the tested compound.

## CSCCC(NC(=O)COc1ccc2c3c(c(=O)oc2c1)CCCC3)C(=O)NCCC(=O)O (stereo not drawn) [ALS-31]
[1]; 20 µM compound, activity of SmSOD in the absence of compound equal to 100, read-out: Residual SOD Activity (%) in the Presence of [Compound]
  remaining activity at 20 µM: 92%
[1]; 50 µM compound, activity of SmSOD in the absence of compound equal to 100, Table 1, read-out: Residual SOD Activity (%) in the Presence of [Compound]
  remaining activity at 50 µM: 71%
[1]; Mn-basal SmSOD, read-out: IC50 (concentration leading to 50% inhibition of SmSOD activity)
  IC50: 159 µM
[1]; Mn-enriched SmSOD, basal Mn content 2.7-fold improved after metal exchange, read-out: IC50 in the Mn-enriched enzyme
  IC50: 262 ± 11 µM
[1]; read-out: Residual SOD Activity (%) in the Presence of [Compound]
  remaining activity at 100 µM: 56%
[1]; screening concentrations or inhibition profile up to 300 µM
  effect on SmSOD activity (in words): dose-dependent reduction; also recorded: evident dose-dependent inhibition
[2]
  IC50: 218 ± 50 µM
[3]
  IC50: 123 ± 20 µM
[4]
  IC50: 161 ± 56 µM
[5]; 200 µM compound in equilibration and elution buffer, untreated SmSOD 51.8 kDa
  calculated molecular mass of SmSOD major peak: 23.2 kDa
[5]; 200 µM compound in protein sample and elution buffer
  quaternary structure of SmSOD in gel-filtration: dissociation of the SmSOD homodimer in two monomers
[5]; SmSOD incubated with 200 µM compound before loading, no compound in elution buffer
  elution of SmSOD compared with untreated sample: almost identical elution
[6]
  electrophoretic mobility of SmSOD: no change
[7]; 104 µM
  percentage of planktonic growth of S. mutans: 74.3 ± 4.5%
[7]; 209 µM
  percentage of planktonic growth of S. mutans: 50.7 ± 4.2%
[7]
  concentration up to which no antimicrobial activity is displayed in S. mutans suspensions: ≤ 50 µM
[8]; Streptococcus mutans, ATCC700610, 52.5 µM, read-out: inhibition of biofilm biomass formation
  inhibition at 52.5 µM: 68.2%
[8]; serial dilutions from 52.5 µM
  effect on biofilm formation: no effects
